Where no end group is shown, it is not given here.
What was measured:
[1] = test system: COS7 cells; experiment: localization of GFP-fused p53 fragments expressed in COS7 cells; format: cell-based; conditions: COS7 cells transfected with GFP-fused protein
Text: (B) A photograph showing the green fluorescence of GFP in COS7 cells transfected with (a) GFP alone, (b) GFP-p53 (amino acid residues 312-352), and (c) GFP-p53 (amino acid residues 312-319).
Since the in vitro translated product of a 43 kDa truncated p53, lacking the C terminus, lacks the ability to bind to mortalin protein as described in Example 1, it was presumed that this deleted region contains the region that is related to the binding to mortalin.

[2] = test system: mortalin; experiment: immunoprecipitation of GFP-p53 fragments using anti-mortalin antibody; format: binding; conditions: transfected cells, probed with anti-GFP antibody
Text: (C) Mortalin was immunoprecipitated from cells transfected with GFP-tagged p53 fragments with polyclonal anti-mortalin antibodies, and was visualized with monoclonal antibodies. Immunocomplexes (Mot-IC) were also probed with monoclonal anti-GFP antibody to determine whether the p53 fusion proteins co-precipitate with mortalin (left panel). […] Bands corresponding to the IgG heavy and light chains are also detected on Mot-IC gel.

[3] = test system: binding between p53 and mortalin (amino acid residues 1-435 or 105-435); experiment: competitive inhibition assay of p53-mortalin binding; conditions: increasing amounts of competitor peptide
Text: (C) The increase of the amounts of the peptide (comp. pep) corresponding to the mortalin amino acid residues 253-282 to be added reduced the […] the mortalin amino acid residues 1-435 (mot 1-435) and the peptide corresponding to mortalin amino acid residues 105-435 (mot 105-435). p53 was immunoprecipitated with the polyclonal anti-p53 antibody (CM-1) and detected by Western blotting with a monoclonal anti-p53 antibody (PAb 421)) (bands represented with an arrowhead). Co-immunoprecipitated mortalin was detected by Western blotting with anti-His tag antibody (indicated by arrows).
Next, a competitive inhibition assay was performed to confirm the involvement of this peptide of amino acid residues 253-282 in the binding to p53.

[4] = target: T1, full-length mouse wild-type p53 (Mus musculus, UniProt P02340); experiment: in vitro binding assay of mortalin protein and p53 protein (co-immunoprecipitation); conditions: His-tagged recombinant mortalin, in vitro translated 35S-labeled p53, co-precipitation
T1 construct: mRNA encoding full-length mouse wild-type p53; made in house; host or cells: in vitro translation in rabbit reticulocyte lysate (Stratagene)
T1 sequence (P02340 whole entry): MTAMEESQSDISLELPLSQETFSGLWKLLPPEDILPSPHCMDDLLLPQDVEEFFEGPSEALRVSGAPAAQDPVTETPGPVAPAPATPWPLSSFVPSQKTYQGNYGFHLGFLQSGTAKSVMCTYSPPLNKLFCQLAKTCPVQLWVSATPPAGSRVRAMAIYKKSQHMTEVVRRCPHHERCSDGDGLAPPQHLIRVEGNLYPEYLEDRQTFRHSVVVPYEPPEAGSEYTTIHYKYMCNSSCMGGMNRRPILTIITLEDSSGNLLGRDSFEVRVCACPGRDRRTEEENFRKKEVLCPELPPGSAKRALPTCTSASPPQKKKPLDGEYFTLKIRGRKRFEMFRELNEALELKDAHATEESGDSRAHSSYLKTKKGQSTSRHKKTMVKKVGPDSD
Protocol: After preparing mRNA encoding full-length mouse wild-type p53 with a template of pSP65/p53 plasmid (Braithwaite, A. W. and Jenkins, J. R. (1989) J. Virol. 63, 1792-1799) using Transprobe T Kit (Pharmacia), [^35S]-labeled p53 protein was obtained by subjecting to in vitro translation reaction using rabbit reticulocyte lysate (Stratagene) for 1 hour in the presence of L-[^35S]methionine. After separating the translation products by SDS-PAGE, the translation reaction products were confirmed by autoradiography. The in vitro translated p53 protein was purified by immunoprecipitation with anti-p53 antibodies (PAb 421, PAb 1620 (Calbiochem), and PAb 122 (Boehringer-Mannheim)), and was used in the subsequent in vitro binding assays described below.
After preparing cDNAs encoding the recombinant mortalin protein (full-length) and various deletion mutants (described later) by PCR and converting them to a form to encode a His-tagged protein by inserting the cDNAs into pQE30 vector (Qiagen) the cDNAs were introduced into E. coli for expression. The resulting bacterial extracts were purified with Ni-NTA agarose (Qiagen). […] Then, p53 protein was detected by autoradiography; mortalin and deletion mutants thereof were detected by Western blotting with anti-His antibody and ECL-chemiluminescence (Amersham).

[5] = test system: p53-dependent transcriptional activation; experiment: p53-dependent luciferase reporter analysis in p53-/- mouse embryonic fibroblasts; format: cell-based; conditions: p53-/- MEF, PG13-luc type reporter, temperature-sensitive p53 at 32.5° C.
Text: After preparing cDNAs that encode mutant mortalin proteins missing each of the functions shown in FIG. 3A and mortalin proteins point mutated at two different amino acid residues between mot-1 and mot-2 according to the method described in Example 1, the cDNAs were used for p53-dependent reporter analysis. Specifically, cells obtained by stable transfection of plasmid […], wherein the firefly luciferase gene has been linked to p53 responsive promoter (having the promoter sequence “[…]” and expresses the gene downstream of that sequence as a result of binding with p53 protein), and temperature-sensitive mutant p53 protein expression vector pMSVp53Val135 into mouse embryonic fibroblasts deficient in functional p53 gene (P53−/−MEF) (see, Wadhwa, R. et al. (1998) J. Biol. Chem. 273, 29586-29591) were transfected with various mortalin mutant protein expression vectors and pRL-CMV, serving as an internal control for standardizing transcription efficiency. After incubation at 32.5° C., which is an allowable temperature for the mutant p53 protein, the luciferase activity was measured.

[6] = test system: p53-dependent transcriptional activation; experiment: p53 responsive β-gal reporter assay by microinjection into Saos2 cells; format: cell-based, human; conditions: for β-Gal Staining: Percent of Blue cells / β-Gal Staining: Blue cells: Saos2, microinjected with pMSV p53 and p53 β-gal rep.
Text: (C) The p53 activity detected for the p53 responsive β-galactosidase reporter construct was inhibited when a plasmid encoding mot-2 (b and i) , mut-11 (d and K), or mutant V16M (f and m) was simultaneously microinjected with the p53 expression plasmid. […] Microinjected cells were visualized by staining with FITC-labeled anti-rabbit IgG (a-g).
Similar results were obtained according to an experiment wherein the above mutant mortalin proteins, temperature-sensitive mutant p53 protein, and p53 responsive β-gal reporter gene pRGCΔfos-lacZ were introduced into a human osteosarcoma cell line Saos2 by microinjection.

“GFP-p53 (amino acid residues 312-352): green fluorescent protein fused with p53 amino acid residues 312-352 ({GFP}-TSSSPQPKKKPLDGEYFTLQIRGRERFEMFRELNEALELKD; UniProt P04637 312-352, looked up, fragment)” was tested, and the “expressed proteins localized to the vicinity of the nucleus” value [1] was “about 90%” and the “binding to mortalin (co-precipitation)” value [2] was “confirmed to bind to mortalin”.

“253-282: peptide corresponding to the mortalin amino acid residues 253-282” was tested, and the “inhibition of binding between p53 and mortalin” value [3] was “inhibited binding between p53 and mortalin”.

“mot-1: mortalin protein cloned from normal mouse cells; differs from mot-2 by two amino acids (residues 618 and 624)” was tested, and the “binding with full-length p53 protein” value [4] was “specifically bound”, the “inhibition of p53-dependent transcriptional activation (luciferase activity)” value [5] was “did not have any effect” and the “β-Gal Staining: Percent of Blue cells” value [6] was 88%. For the same substance, the “β-Gal Staining: Blue cells” value ([6]; with Anti-mot IgG) was 83, the “β-Gal Staining: Percent of Blue cells” value ([6]; with Anti-mot IgG) was 90% and the “β-Gal Staining: Blue cells” value ([6]; number of blue cells among transfected cells) was 52. For the same substance, the “effect on p53-dependent transcriptional activation (β-gal reporter)” value ([6]; Saos2, microinjection) was “did not have a significant effect”.

In the case of “GFP-p53 (amino acid residues 372-390): green fluorescent protein fused with p53 amino acid residues 372-390 ({GFP}-KKGQSTSRHKKLMFKTEGP; UniProt P04637 372-390, looked up, fragment)”, the “binding to mortalin (co-precipitation)” value [2] is reported as “no precipitation”.
